The record followed here is patent US5654296A, “Condensed heterocyclic compounds, their production and use” (priority 1994, dated 1997).

A word on the IC50: it is the concentration at which inhibition is half-maximal.

For this assay, the target named is T1, human GnRH receptors (Homo sapiens, UniProt P30968).
T1 construct: expressed in transfected cells; host or cells: CHO (Chinese hamster ovary) cells, membrane fraction
T1 sequence (P30968 1-328): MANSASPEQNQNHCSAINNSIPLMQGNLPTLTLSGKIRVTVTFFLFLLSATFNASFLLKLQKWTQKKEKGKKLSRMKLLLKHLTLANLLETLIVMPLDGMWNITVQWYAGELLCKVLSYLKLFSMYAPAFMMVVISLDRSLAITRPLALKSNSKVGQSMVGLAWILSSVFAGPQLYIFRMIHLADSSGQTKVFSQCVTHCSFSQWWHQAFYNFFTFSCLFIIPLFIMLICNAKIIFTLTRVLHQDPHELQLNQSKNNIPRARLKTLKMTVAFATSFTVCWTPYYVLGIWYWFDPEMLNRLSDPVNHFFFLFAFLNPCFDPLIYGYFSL
Nature of the assay: 125I-leuprolerin GnRH receptor binding inhibition test, human (CHO cell membrane fraction). Particulars: human GnRH receptors expressed in CHO cells, 25° C., 60 minutes, read-out: Binding inhibitory activity (IC50 μM) Human. The protocol: Ten (10) μl of 3×10^4 M aqueous leuprolerin solution and 10 μl of 0.01 mg/ml lactoperoxidase were taken in a tube and 10 μl of Na^125 I solution (37 MBq) was added. After stirring, 10 μl of 0.001% H2 O2 was added and the reaction was conducted at room temperature for 20 minutes. Then, 700 μl of 0.05% TFA solution was added to the tube to terminate the reaction and the reaction mixture was purified by reverse-phase HPLC. The HPLC conditions are shown below. ^125 I-leuprolerin was eluted after a retention time of 26-27 minutes. (D) Preparation of a CHO (Chinese Hamster Ovarian) Cell Membrane Fraction Containing Human GnRH Receptors […] To the cell pellet was added 10 ml of cell homogenate buffer (10 mM NaHCO3, 5 mM EDTA, pH 7.5) and the mixture was homogenized using a Polytron homogenizer. The homogenate was centrifuged at 400×G for 15 minutes. The supernatant was taken in an ultracentrifuge tube and centrifuged at 100,000×G for 1 hour to provide a membrane fraction pellet. […] After filtration, the radioactivity of ^125 I-leuprolerin remaining on the filter was measured with a γ-counter. The expression (TB-SB)/(TB-NSB)×100 (where SB=radioactivity with the compound added, TB=maximum bound radioactivity, NSB=nonspecifically bound radioactivity) was calculated to find the binding inhibition rate of each test compound.

Structures can show the parent of a compound that is named as a salt.

Regarding `COC(=O)c1cccc(CNCCCC2(c3ccccc3)COCc3ccccc32)c1` (stereo not drawn) [Example I-45, Methyl α-[3-(4-Phenylisochroman-4-yl)propylamino]-m-toluate hydrochloride], the IC50 was found to be 6 µM.

In the case of `COc1cc2c(cc1OC)CC1(CCCCN1CCCCC1(c3ccccc3)COCc3ccccc31)CC2` (centres unmarked) [Example I-52, 3,4-Dihydro-6,7-dimethoxy-1'-[4-(4-phenylisochroman-4-yl)butyl]spiro[naphthalene-2(1H),2'-piperidine] hydrochloride], the half-maximal inhibitory concentration (IC50) amounted to 6 µM.
